{
  "source": "patent EP1161410B1",
  "about": "“RETINOID ANTAGONISTS AND USE THEREOF” (Basilea Pharmaceutica AG, priority 1999, dated 2000)",
  "key": {"[1]": {"tested_on": "neonatal mouse calvaria", "assay": "Bone resorption assay, calcium release from neonatal mouse calvaria in tissue culture", "type": "cell-based, Swiss albino mice", "procedure": "A series of agents are known to induce or stimulate bone resorption. In this assay retinoid antagonists were tested for their capacity to inhibit or counteract the bone resorptive activity of bone resorption inducers.\nBone resorption was determined by quantification of calcium release from neonatal mouse calvaria (skull bones) in a tissue culture system, into supernatant medium. Calvaria were prepared from 4 days old mice (body weight 4-4.5 g) of time controlled mated Swiss albino mice. Frontal and parietal calvarial parts were dissected under a stereo-microscope and halved along the median suture. Half calvaria from all animals were randomly distributed to 6-well culture dishes (NUNC), containing stainless steel grids to support the bones at the interface of gas and medium. The tissue is incubated in BGJ medium (Bioconcept, Switzerland) according to a specified formulation supplemented with 1 mg/ml BSA (bovine serum albumin, SIGMA). Calvaria were cultured at 37°C in humidified atmosphere of 5% CO2 and 95% air. After 24 hours of preincubation, they were transferred to new dishes containing 1.7 ml fresh medium and test substances. Bone resorption inducers and retinoid antagonists were tested either as single agents or in combination. The cultures were then run for 72 hours. Calcium concentrations in culture supernatants were measured immediately after each incubation period. Stable, free calcium was determined in 25 µl samples with a spectrophotometric method using a methylthymol blue containing kit (Biomérieux), (E.M. Gindler and J.D. King, Am. J. Clin. Pathol. 1972, 58, 376-382). The resorptive response was expressed as µg calcium released per half calvarium during 3 days treatment.\nAdditional tests were done to examine calcium remaining in the calvaria. Calcium was extracted with 5% trichloroacetic acid (TCA) and determined in 50 µl samples after neutralization with NaOH. Furthermore, bone tissue viability was determined to exclude cytotoxicity. This was quantified by the colorimetric MTT tetrazolium test (T. Mosmann, J. Immunol. Methods 1983, 65, 55-63).\nBone resorption induced by the various agents was determined by measuring the amount of calcium released from half calvaria into the supernatant medium. Calcium release is indicated in µg per half calvarium in 1.7 ml medium. Calcium release from calvaria into medium as well as uptake of calcium from medium into calvaria can be measured. Efficacy of retinoid antagonists to inhibit the activity of bone resorption inducers is expressed as % inhibition. It is calculated from the difference between the amount of released calcium by bone resorption inducers alone and the amount of released calcium by their combination with retinoid antagonists. Retinoid antagonists alone induce neither calcium release nor uptake. Basal resorption rate in vehicle controls was 5 or less than 5%."}, "[2]": {"assay": "Effect on weight loss induced by all-trans retinoic acid in mice", "conditions": "female mice", "excerpt": "Effect of retinoids with RXR antagonistic activity on weight loss induced by all-trans retinoic acid in mice.\nThe test compounds were solubilized/suspended in arachis oil and applied intraperitoneally into female mice (25/30 g) for 5 days a week during 2 weeks."}, "[3]": {"tested_on": "IL-12", "assay": "IL-12 production by activated monocytes (SAC + IFN-γ), ELISA", "type": "cell-based, human", "conditions": "SAC+IFN-γ alone 120-126 pg/ml", "procedure": "THP-1 cells were obtained from American Tissue Culture Collection and cultured in complete medium. […] Exp. Med. 183, 147-157 (1996)]. […] Supernatants were collected after 48 hours and freezed at -20 °C until assayed [[…]-Bordignon et al., J. Clin. Invest. 100, 1513-1519 (1997)]. […] Clin. Invest. 93, 1733-1739 (1994)]. […] Absorbance was read at 450-650 nm. The unknown IL-12 concentrations of the samples were read from the corresponding standard curve and multiplied by the corresponding dilution factor. […] Serial dilutions (1 μM-1 pM) were prepared in complete RPMI medium. 10 μl of each dilution was added to 1 ml culture."}, "[4]": {"tested_on": "IL-10", "assay": "IL-10 production by activated monocytes (SAC + IFN-γ)", "type": "cell-based, human", "conditions": "SAC+IFN-γ alone 1040 pg/ml"}, "[5]": {"tested_on": "TNF-α", "assay": "TNF-α production by activated monocytes (SAC + IFN-γ)", "type": "cell-based, human", "conditions": "SAC+IFN-γ alone 1840-2000 pg/ml"}, "[6]": {"tested_on": "IL-12", "assay": "IL-12 production by PBMC primed with IFNγ and stimulated with SAC", "type": "cell-based, human", "conditions": "IFNγ+SAC alone 360", "procedure": "(§1) THP-1 cells were obtained from American Tissue Culture Collection and cultured in complete medium. To assay for IL-12 production, THP-1 cells, 1.25 x 10^6 cells/ml, were stimulated with S. aureus Cowan strain (SAC) (1/1000) and human recombinant interferon-γ (huIFN-γ (1000 U/ml) [Ma et al., J. Exp. Med. 183, 147-157 (1996)]. Alternatively, 0.5 x 10^6 human peripheral blood mononuclear cells (PBMC) (1 ml culture in 48 well plates) were primed with huIFN-γ (1000 U/ml) for 16 hours at 37°C, and then stimulated with SAC (1/1000). Supernatants were collected after 48 hours and freezed at -20 °C until assayed [Panina-Bordignon et al., J. Clin. Invest. 100, 1513-1519 (1997)].\n(§2) IL-12 production was measured by specific enzyme linked immuno sorbant assay (ELISA), using 20C2 antibody (rat anti human IL-12 heterodimer p40-p35), at 2.5 µg/ml in coating buffer, and peroxidase-conjugated 4D6 antibody (rat anti human IL-12) at 250 ng/ml in assay buffer as described [Zhang et al., J. Clin. Invest. 93, 1733-1739 (1994)]. Standard (recombinant human IL-12, 800 pg/ml to 6 pg/ml) and samples (100 µl) diluted in assay buffer were added to duplicate wells. Absorbance was read at 450-650 nm. The unknown IL-12 concentrations of the samples were read from the corresponding standard curve and multiplied by the corresponding dilution factor. Maximal IL-12 production varied between 200 and 400 pg/ml.\n(§3) Lyophilized retinoid antagonists were diluted in DMSO under yellow light, on ice at a concentration of 2 mM. Serial dilutions (1 µM-1 pM) were prepared in complete RPMI medium. 10 µl of each dilution was added to 1 ml culture."}, "[7]": {"tested_on": "IL-12", "assay": "IL-12 production by THP-1 cells stimulated with IFNγ and SAC", "type": "cell-based, human", "conditions": "retinoid antagonist (1 µg) added at time 0 together with IFNγ, IFNγ+SAC alone 275", "procedure": "as §1, §2, §3"}, "[8]": {"conditions": "A 200 mg/kg alone, intraperitoneally, n=2"}, "[9]": {"conditions": "C 100 mg/kg + A 200 mg/kg, intraperitoneally, n=2"}, "[10]": {"conditions": "C 200 mg/kg + A 200 mg/kg, intraperitoneally, n=2"}},
  "data": [
    {"smiles": "CC1=C(/C=C/C(C)=C/C=C/C(C)=C/C(=O)O)C(C)(C)CCC1", "note": "[Compound C, all-trans retinoic acid]", "values": [
      {"measurement": "Calcium release per half calvarium", "setting": "[1]; all-trans RA 0.01 μM alone, series of antagonist B", "value": "1 ± 2", "unit": "µg"},
      {"measurement": "Calcium release per half calvarium", "setting": "[1]; all-trans RA 0.01 μM alone, series of antagonist H", "value": "1 ± 4", "unit": "µg"},
      {"measurement": "Calcium release per half calvarium", "setting": "[1]; all-trans RA 0.1 μM alone, series of antagonist B", "value": "13 ± 3", "unit": "µg"},
      {"measurement": "Calcium release per half calvarium", "setting": "[1]; all-trans RA 0.1 μM alone, series of antagonist H", "value": "19 ± 11", "unit": "µg"},
      {"measurement": "Calcium release per half calvarium", "setting": "[1]; all-trans RA 1 μM alone, series of antagonist B", "value": "17 ± 3", "unit": "µg"},
      {"measurement": "Calcium release per half calvarium", "setting": "[1]; all-trans RA 1 μM alone, series of antagonist H", "value": "23 ± 8", "unit": "µg"},
      {"measurement": "% survival after 14 days", "setting": "[2]; C 100 mg/kg alone, intraperitoneally, n=10", "value": 20, "unit": "%"},
      {"measurement": "% survival after 14 days", "setting": "[2]; C 200 mg/kg alone, intraperitoneally 5 days a week during 2 weeks, n=2", "value": 0, "unit": "%"}
    ]},
    {"smiles": "CC1(C)CCC(C)(C)c2cc3c(cc21)CCc1c(-c2ccc(C(=O)O)cc2)cn(Cc2cccnc2)c1-3", "note": "[Compound I, 4-(7,7,10,10-Tetramethyl-1-pyridin-3-ylmethyl-4,5,7,8,9,10-hexahydro-1H-naphto[2,3-g]indol-3-yl)-benzoic acid]", "values": [
      {"measurement": "IL-12", "setting": "[3]; antagonist 10 nM", "value": 173, "unit": "pg/mL"},
      {"measurement": "IL-12", "setting": "[3]; antagonist 100 nM", "value": 205, "unit": "pg/mL"},
      {"measurement": "IL-12", "setting": "[3]; antagonist 1000 nM", "value": 321, "unit": "pg/mL"},
      {"measurement": "IL-10", "setting": "[4]; antagonist 10 nM", "value": 971, "unit": "pg/mL"},
      {"measurement": "IL-10", "setting": "[4]; antagonist 100 nM", "value": 983, "unit": "pg/mL"},
      {"measurement": "IL-10", "setting": "[4]; antagonist 1000 nM", "value": 1116, "unit": "pg/mL"},
      {"measurement": "TNF-α", "setting": "[5]; antagonist 10 nM", "value": 2592, "unit": "pg/mL"},
      {"measurement": "TNF-α", "setting": "[5]; antagonist 100 nM", "value": 2752, "unit": "pg/mL"},
      {"measurement": "TNF-α", "setting": "[5]; antagonist 1000 nM", "value": 2884, "unit": "pg/mL"},
      {"measurement": "PBMC IL-12", "setting": "[6]; retinoid antagonist (1 µg) added after 16 hours together with SAC", "value": 367, "unit": "pg/mL"},
      {"measurement": "PBMC IL-12", "setting": "[6]; retinoid antagonist (1 µg) added at time 0 together with IFNγ", "value": 371, "unit": "pg/mL"},
      {"measurement": "THP-1 IL-12", "setting": "[7]", "value": 364, "unit": "pg/mL"}
    ]},
    {"smiles": "CCOc1c(\\C(C)=C/C=C/C(C)=C/C(=O)O)cc(C(C)(C)C)cc1C(C)(C)C", "note": "[Compound A, (2E,4E,6Z)-7-(3,5-di-tert.butyl-2-ethaxyphenyl]-3-methyl-2,4,6-octatrienoic acid]", "values": [
      {"measurement": "% survival after 14 days", "setting": "[2]; [8]", "value": 100, "unit": "%"},
      {"measurement": "% weight change after 4 days", "setting": "[2]; [8]", "value": "+15%"},
      {"measurement": "% weight change after 7 days", "setting": "[2]; [8]", "value": "+26%"},
      {"measurement": "% survival after 14 days", "setting": "[2]; [9]", "value": 100, "unit": "%"},
      {"measurement": "% weight change after 4 days", "setting": "[2]; [9]", "value": -13, "unit": "%"},
      {"measurement": "% weight change after 7 days", "setting": "[2]; [9]", "value": -8, "unit": "%"},
      {"measurement": "% survival after 14 days", "setting": "[2]; [10]", "value": 100, "unit": "%"},
      {"measurement": "% weight change after 4 days", "setting": "[2]; [10]", "value": -23, "unit": "%"},
      {"measurement": "% weight change after 7 days", "setting": "[2]; [10]", "value": -23, "unit": "%"}
    ]},
    {"smiles": "C=C1/C(=C\\C=C2/CCC[C@]3(C)[C@@H]([C@H](C)CCCC(C)(C)O)CC[C@@H]23)C[C@@H](O)C[C@@H]1O", "note": "[Calcitriol, 1,25-dihydroxyvitamin D3]", "values": [
      {"measurement": "Calcium release per half calvarium", "setting": "[1]; Calcitriol 0.3 nM alone, 72 hours", "value": "4 ± 3", "unit": "µg"},
      {"measurement": "Calcium release per half calvarium", "setting": "[1]; Calcitriol 1 nM alone, 72 hours", "value": "9 ± 4", "unit": "µg"},
      {"measurement": "Calcium release per half calvarium", "setting": "[1]; Calcitriol 3 nM alone, 72 hours", "value": "13 ± 3", "unit": "µg"}
    ]},
    {"smiles": "CC1=C(/C=C/C(C)=C\\C=C\\C(C)=C\\C(=O)O)C(C)(C)CCC1", "note": "[Compound E, 9-cis retinoic acid]", "values": [
      {"measurement": "Calcium release per half calvarium", "setting": "[1]; 9-cis RA 0.01 μM alone, series of antagonist B", "value": "3 ± 3", "unit": "µg"},
      {"measurement": "Calcium release per half calvarium", "setting": "[1]; 9-cis RA 0.01 μM alone, series of antagonist H", "value": "6 ± 10", "unit": "µg"},
      {"measurement": "Calcium release per half calvarium", "setting": "[1]; 9-cis RA 0.1 μM alone, series of antagonist B", "value": "17 ± 10", "unit": "µg"},
      {"measurement": "Calcium release per half calvarium", "setting": "[1]; 9-cis RA 0.1 μM alone, series of antagonist H", "value": "22 ± 8", "unit": "µg"},
      {"measurement": "Calcium release per half calvarium", "setting": "[1]; 9-cis RA 1 μM alone, series of antagonist B", "value": "18 ± 4", "unit": "µg"},
      {"measurement": "Calcium release per half calvarium", "setting": "[1]; 9-cis RA 1 μM alone, series of antagonist H", "value": "40 ± 11", "unit": "µg"}
    ]}
  ]
}
